# Measurements taken from patent US20110158944A1, “BRAF BIOMARKERS” (priority 2007, published 2011).
# Like-named read-outs stand apart in the source and are kept apart here.
# Assays:
# Assay in all cases: Cell proliferation IC50 (Cell Titer Glo)
# Assay type in all cases: cell-based
# [1] = system: TT; conditions: Homo sapiens, 96 h, Thyroid, BRAF V600V Wild type, 4 days continuous exposure
# Method: (§1) IC50 Cell proliferation measurements. Cell proliferation was assessed in the 41 tumor cell lines set forth in Table 2 after 4 days of continuous exposure to either the ERK1/2 inhibitor, compound a or the MEK inhibitor compound b (PD0325901) using Promega Cell Titer Glo reagent (Promega Corp, Madison, Wis.). Promega's CellTiter-Glo™ Luminescent Cell Viability Assay is a sensitive method for assaying cell proliferation using a stable form of luciferase to measure ATP as an indicator of viable cells. This reagent allows a homogeneous method of determining cell number by quantitation of ATP. The luciferase luminescent signal produced is proportional to the number of viable cells present in culture.
# (§2) A 1000× compound dose response curve, containing 8 dilutions of each compound, was prepared on a 96-well plate. Compounds were diluted in 100% DMSO to the following (1000×) concentrations: compound b: 1000 μM, 333 μM, 111 μM, 37 μM, 12 μM, 4.1 μM, 1.4 μM and 0.5 μM; compound a: 3000 μM, 1000 μM, 333 μM, 111 μM, 37 μM, 12 μM, 4.1 μM and 1.4 μM. This compound source plate was sealed and kept frozen between uses.
# (§3) Cells were grown in RPMI 1640 medium supplemented with 10% Fetal Bovine Serum, 2 mM Glutamine and non-essential amino acids or DMEM/F12 Media containing the same supplements. On day zero, cells were trypsinized, counted and plated into wells of a 96-well Wallac TC Isoplate (Perkin-Elmer Wallac, Gaithersburg, Md.) at a density of 1500-2000 cells per well in 50 μl of complete media. An additional 6-8 replicate well of the cells at the same density were plated on a separate Wallac TC Isoplate. This plate was developed on day 1 to determine the cell-growth baseline.
# (§4) On day 1 of treatment, compound was diluted to 2× in media and immediately added to the cells as follows: one ml of media was added to each well of a deep-well 96-well plate and 2 μl of 1000× compound was added with mixing to make 2× compound in media. 50 μl of the media containing 2× compound was added to the cell plates in duplicate points so the final concentrations for each well were as outlined in Table 1. The plates were then returned to a 37° C. incubator and left undisturbed for 4 days. The day 1 (baseline) plates were developed by first adding 50 μl media (without compound) to bring the volume in each well to 100 μl, then adding 100 μl of Cell Titer Glo reagent (as below).
# (§5) After four days of treatment, the plates were developed with Cell Titer Glo (CTG) reagent (Promega Corp.; Madison, Wis.). Reagent was reconstituted as described in the product insert. 100 μl of reagent was added to all treatment and control wells and the plates were gently shaken for 5 minutes then incubated an additional 5 minutes before reading in an Analyst AD (Molecular Devices Corporation; Sunnyvale, Calif.) using the Luminescence settings.
# (§6) Data was analyzed in Excel using XLfit 4.2, fit model #205 (Dose Response One Site)
# [2] = system: H716; conditions: Homo sapiens, NCI-H716, 96 h, read-out: IC50 cell proliferation
# Method: as §1, §2, §3, §4, §5, §6
# [3] = system: SK-Mel3; conditions: Homo sapiens, read-out: IC50 cell proliferation
# Method: as §1, §2, §3, §4, §5, §6
# [4] = system: Daudi; conditions: Homo sapiens, 96 h, read-out: IC50 cell proliferation
# Method: as §1, §2, §3, §4, §5, §6
# [5] = system: A2058; conditions: Homo sapiens, read-out: IC50 cell proliferation
# Method: as §1, §2, §3, §4, §5, §6
# [6] = system: BHT 101; conditions: Homo sapiens, read-out: IC50 cell proliferation
# Method: as §1, §2, §3, §4, §5, §6
# [7] = system: MB-453; conditions: Homo sapiens, 96 h, read-out: IC50 cell proliferation
# Method: as §1, §2, §3, §4, §5, §6
# [8] = system: Jurkat; conditions: Homo sapiens, 96 h, read-out: IC50 cell proliferation
# Method: as §1, §2, §3, §4, §5, §6
# [9] = system: Colo-205; conditions: Homo sapiens, read-out: IC50 cell proliferation
# Method: as §1, §2, §3, §4, §5, §6
# [10] = system: IGROV-1; conditions: Homo sapiens, read-out: IC50 cell proliferation
# Method: as §1, §2, §3, §4, §5, §6
# [11] = system: Malme 3M; conditions: Homo sapiens, 96 h, read-out: IC50 cell proliferation
# Method: as §1, §2, §3, §4, §5, §6
# [12] = system: SK-Mel-28; conditions: Homo sapiens, read-out: IC50 cell proliferation
# Method: as §1, §2, §3, §4, §5, §6
# [13] = system: Jijoye; conditions: Homo sapiens, 96 h, read-out: IC50 cell proliferation
# Method: as §1, §2, §3, §4, §5, §6
# [14] = system: UACC-62; conditions: Homo sapiens, read-out: IC50 cell proliferation
# Method: as §1, §2, §3, §4, §5, §6
# [15] = system: BxPc-3; conditions: Homo sapiens, read-out: IC50 cell proliferation
# Method: as §1, §2, §3, §4, §5, §6
# [16] = system: SJCRH30; conditions: Homo sapiens, 96 h, read-out: IC50 cell proliferation
# Method: as §1, §2, §3, §4, §5, §6
# [17] = system: SNU-16; conditions: Homo sapiens, read-out: IC50 cell proliferation
# Method: as §1, §2, §3, §4, §5, §6
# [18] = Leukemia, BRAF V600V Wild type, 4 days continuous exposure
structure (smiles),measurement,setting,value
"O=C(NOC[C@H](O)CO)c1ccc(F)c(F)c1Nc1ccc(I)cc1F [cpd. b, PD0325901]",IC50,[1],255 nM
same,IC50,[2],164 nM
same,IC50,"[3]; SK-MEL3, 96 h",8 nM
same,IC50,[4],1000 nM
same,IC50,"[5]; A2058, 96 h",10 nM
same,IC50,"[6]; BHT-101, 96 h",10 nM
same,IC50,[7],1000 nM
same,IC50,[8],1000 nM
same,IC50,"[9]; COLO 205, 96 h",5 nM
same,IC50,"[10]; IGROV-1, 96 h",39 nM
same,IC50,[11]; Malme-3M,10 nM
same,IC50,"[12]; SK-MEL-28, 96 h",10 nM
same,IC50,[13],1000 nM
same,IC50,"[14]; UACC-62, 96 h",5 nM
same,IC50,"[15]; BXPC-3, 96 h",119 nM
same,IC50,[16],1000 nM
same,IC50,"[17]; SNU-16, 96 h",1000 nM
O=C(Nc1ccc2[nH]nc(-c3ccncc3)c2c1)C1CCN(CC(=O)N2CCN(c3ccc(-c4ncccn4)cc3)CC2)C1 (stereo not shown) [cpd. a],IC50,[1],406 nM
same,IC50,"[2]; H716, Colon, BRAF V600V Wild type, 4 days continuous exposure",334 nM
same,IC50,"[3]; 96 h, SK-Mel3, Melanoma, BRAF V600E Heterozygous, 4 days continuous exposure",118 nM
same,IC50,[4]; [18],> 3000 nM
same,IC50,"[5]; 96 h, A2058, Melanoma, BRAF V600E Heterozygous, 4 days continuous exposure",120 nM
same,IC50,"[6]; 96 h, BHT 101, Thyroid, BRAF V600E Heterozygous, 4 days continuous exposure",300 nM
same,IC50,"[7]; MB-453, Breast, BRAF V600E Heterozygous, 4 days continuous exposure",672 nM
same,IC50,[8]; [18],> 3000 nM
same,IC50,"[9]; 96 h, Colo-205, Colon, BRAF V600E Homozygous, 4 days continuous exposure",36 nM
same,IC50,"[10]; 96 h, IGROV-1, Ovarian, BRAF V600V Wild type, 4 days continuous exposure",146 nM
same,IC50,"[11]; Malme 3M, Melanoma, BRAF V600E Homozygous, 4 days continuous exposure",10 nM
same,IC50,"[12]; 96 h, SK-Mel-28, Melanoma, BRAF V600E Homozygous, 4 days continuous exposure",85 nM
same,IC50,"[13]; Jijoye, Leukemia, BRAF V600V Wild type, 4 days continuous exposure",> 3000 nM
same,IC50,"[14]; 96 h, UACC-62, Melanoma, BRAF V600E Homozygous, 4 days continuous exposure",30 nM
same,IC50,"[15]; 96 h, BxPc-3, Pancreas, BRAF V600V Wild type, 4 days continuous exposure",184 nM
same,IC50,"[16]; SJCRH30, Rhabdomyosarcoma, BRAF V600V Wild type, 4 days continuous exposure",2000 nM
same,IC50,"[17]; 96 h, SNU-16, Gastric, BRAF V600V Wild type, 4 days continuous exposure",> 3000 nM
